Data as given in patent US20260115185A1, “QUINOLINE DERIVATIVES WHICH ACT AS KAPPA-OPIOID RECEPTOR ANTAGONISTS” (The Scripps Research Institute, priority 2023, published 2026).

Columns and labels:
[1] = biological target: T1, kappa opioid receptor (KOR) (Homo sapiens, UniProt P41145); experiment: OPRKappa 1 Tango B-Arrestin Assay, antagonist mode (Tango OPRK1-bla U2OS cells, U50488 EC80 challenge); type: cell-based; conditions: for Selectivity (MOR/KOR): Kappa selectivity, MOR IC50 / KOR IC50; for IC50: antagonist mode, Tango OPRK1-bla U2OS cells, 6 nM U50488 challenge
T1 construct: host or cells: U2OS (Tango OPRK1-bla U2OS)
T1 sequence (P41145 whole entry): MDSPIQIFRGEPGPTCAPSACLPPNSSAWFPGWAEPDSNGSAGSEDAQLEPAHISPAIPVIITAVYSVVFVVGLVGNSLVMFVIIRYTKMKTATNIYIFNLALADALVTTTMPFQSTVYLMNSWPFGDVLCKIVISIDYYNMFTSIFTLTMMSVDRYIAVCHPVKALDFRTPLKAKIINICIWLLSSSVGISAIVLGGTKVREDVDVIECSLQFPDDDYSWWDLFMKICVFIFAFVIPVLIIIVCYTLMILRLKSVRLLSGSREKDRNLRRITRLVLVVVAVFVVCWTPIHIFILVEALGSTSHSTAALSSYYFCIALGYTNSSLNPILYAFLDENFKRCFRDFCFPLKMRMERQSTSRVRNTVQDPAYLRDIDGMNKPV
In short: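 Tango OPRK1-bla U2OS cells, β-arrestin recruitment read as β-lactamase FRET (CCF4-AM, 460/590 nm emission). Compounds, 10-point 1:3 series from nominal 10 µM in quadruplicate, preincubated 30 min at 37 °C, then challenged with U50488 at 6 nM final (EC80) for 4 h; percent inhibition from median ratio.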

mu opioid receptor (MOR) = biological target: T2, mu opioid receptor (MOR) (Homo sapiens, UniProt P35372); experiment: OPRMu1 Discover X β-arrestin Assay, antagonist mode (U2OS cells, DAMGO EC80 challenge); type: cell-based
T2 construct: host or cells: U2OS (Discover X OPRMu1-U2OS, PathHunter)
T2 sequence (P35372 whole entry): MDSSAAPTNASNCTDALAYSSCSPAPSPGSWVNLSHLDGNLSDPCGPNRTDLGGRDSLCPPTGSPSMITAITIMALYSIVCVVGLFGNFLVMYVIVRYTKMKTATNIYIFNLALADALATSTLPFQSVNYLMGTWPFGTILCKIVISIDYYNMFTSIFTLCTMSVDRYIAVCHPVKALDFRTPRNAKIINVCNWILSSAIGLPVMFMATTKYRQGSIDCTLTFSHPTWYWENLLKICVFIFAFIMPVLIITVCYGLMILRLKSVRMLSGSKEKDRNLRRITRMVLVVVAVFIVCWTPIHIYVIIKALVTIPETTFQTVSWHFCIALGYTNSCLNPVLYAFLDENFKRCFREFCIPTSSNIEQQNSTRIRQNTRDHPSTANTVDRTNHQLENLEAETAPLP
In short: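 PathHunter U2OS cells with β-gal fragment-complementation readout for β-arrestin recruitment to OPRMu1. Cells were preincubated with compound (10-point, 1:3 series from nominal 10 micromolar) for 30 min at 37 °C, then challenged with 303 nM DAMGO (EC80) for 3 h. Luminescence gave percent inhibition.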

Row | Structure (SMILES) | Selectivity (MOR/KOR) [1] | IC50 [1] | IC50 (mu opioid receptor (MOR))
1 | CCc1cc(F)c2nc(N3CC[C@@H]4[C@@H](CCN4C[C@@H]4CCOC4)C3)c(-c3ccn(C)n3)c(C)c2c1 (stereo in doubt) [Compound 127] | +++ (between 100- to 1000-fold selective) | ≥ 0.1 µM | > 1 µM
2 | CCc1cc(F)c2nc(N3CCN(CC4CCOCC4)[C@@H](C)C3)c(-c3nc(C)no3)c(C)c2c1 [Compound 38, (S)-5-(6-ethyl-8-fluoro-4-methyl-2-(3-methyl-4-((tetrahydro-2H-pyran-4-yl)methyl)piperazin-1-yl)quinolin-3-yl)-3-methyl-1,2,4-oxadiazole] | ++ (between 10- and 100-fold selectivity) | 0.01 to 0.1 µM | > 1 µM
3 | CCc1cc(F)c2nc(N3CC[C@@H](N[C@H]4CCOC4)[C@@H](F)C3)c(-c3ccn(C)n3)c(C)c2c1 [Compound 193, (3S,4R)-1-(6-ethyl-8-fluoro-4-methyl-3-(1-methyl-1H-pyrazol-3-yl)quinolin-2-yl)-3-fluoro-N—((S)-tetrahydrofuran-3-yl)piperidin-4-amine] | ++++ (more than 1000-fold selectivity over MOR) | < 0.001 µM | > 1 µM
4 | CCc1cc(-c2cc(C)nn2C)c2nc(N3CC[C@H](NC4CCOCC4)[C@H](F)C3)c(-c3ccn(C)n3)c(C)c2c1 [Compound 96] | +++ (between 100- to 1000-fold selective) | 0.001 to 0.01 µM | > 1 µM
5 | CCc1cc(F)c2nc(N3CC[C@@H](N[C@@H]4CCCOC4)C[C@@H]3C)c(-c3ccn(C)n3)c(C)c2c1 [Compound 120] | ++++ (more than 1000-fold selectivity over MOR) | < 0.001 µM | > 1 µM
6 | CCc1cc(F)c2nc(N3CCN(CC4CCOCC4)C[C@H]3C)c(-c3cc(C)no3)c(C)c2c1 [Compound 63, (R)-5-(6-ethyl-8-fluoro-4-methyl-2-(2-methyl-4-((tetrahydro-2H-pyran-4-yl)methyl)piperazin-1-yl)quinolin-3-yl)-3-methylisoxazole] | +++ (between 100- to 1000-fold selective) | 0.01 to 0.1 µM | > 1 µM
7 | CCc1cc(F)c2nc(N3CCN(C(=O)[C@@H](C)N4CC[C@@H](O)C4)C[C@H]3C)c(-c3nc(C)no3)c(C)c2c1 [Compound 146] | +++ (between 100- to 1000-fold selective) | 0.01 to 0.1 µM | > 1 µM
8 | CCc1cc(F)c2nc(N3CCN(C(=O)[C@@H]4COCCN4C)C[C@H]3C)c(-c3nc(C)no3)c(C)c2c1 [Compound 185] | +++ (between 100- to 1000-fold selective) | 0.01 to 0.1 µM | > 1 µM
9 | CCc1cc(-c2cnn(CCO)c2)c2nc(N3CCNC[C@H]3C)c(-c3nc(C)no3)c(C)c2c1 [Compound 106] | ++ (between 10- and 100-fold selectivity) | ≥ 0.1 µM | > 1 µM
10 | CCc1cc(F)c2nc(N3CCC(N[C@H]4CCOC4)CC3)c(-c3cc(C(F)(F)F)n(C)n3)c(C)c2c1 [Compound 84] | +++ (between 100- to 1000-fold selective) | 0.01 to 0.1 µM | > 1 µM
11 | CCc1cc(F)c2nc(N3CCN(CCC4CC(F)(F)C4)C[C@H]3C)c(-c3nc(C)no3)c(C)c2c1 [Compound 186] | +++ (between 100- to 1000-fold selective) | 0.001 to 0.01 µM | 0.1 to 1 µM
12 | CCc1cc(F)c2nc(N3CCN(C(=O)CN(C)C)C[C@H]3C)c(-c3nc(C)no3)c(C)c2c1 [Compound 44] | +++ (between 100- to 1000-fold selective) | 0.01 to 0.1 µM | > 1 µM
13 | CCc1cc(F)c2nc(N3[C@H](C)CN(C(=O)CN4CCCC4)C[C@H]3C)c(-c3nc(C)no3)c(C)c2c1 [Compound 161] | +++ (between 100- to 1000-fold selective) | < 0.001 µM | 0.1 to 1 µM
14 | CCc1cc(F)c2nc(N3CCN(C[C@H]4CCOC4)C[C@H]3C)c(-c3ccn(C)n3)c(C)c2c1 [Compound 58] | +++ (between 100- to 1000-fold selective) | 0.01 to 0.1 µM | > 1 µM
